# According to patent publication US9215877B2, “Compositions including a vacancy-engineered(VE)-ZnO nanocomposite, methods of making a composition , method of using a composition” (priority 2014, dated 2015):
# Tested on: E. coli
# Assay: Minimum inhibitory concentration (MIC) against E. coli
# Assay type: cell-based
# Conditions: Escherichia coli, read-out: MIC (μg/mL) in metallic Zn or Cu
structure (smiles),measurement,value
"O=C([O-])c1ccccc1O.[Na+] [Capping Agent, sodium salicylate]",MIC,3000 µg/mL
